Measured values taken from ChEMBL document CHEMBL1201862, “PubChem BioAssay data set” (2004).
Active and inactive are the calls of the source.

Tests used:
[1] = biological target: T1, Sentrin-specific protease 6 (Homo sapiens, UniProt Q9GZR1); type: functional;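 also: Luminescence-based dose-response confirmatory assay of SENP6 inhibition, following up an ultra-high-throughput screen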
T1 sequence (Q9GZR1 whole entry): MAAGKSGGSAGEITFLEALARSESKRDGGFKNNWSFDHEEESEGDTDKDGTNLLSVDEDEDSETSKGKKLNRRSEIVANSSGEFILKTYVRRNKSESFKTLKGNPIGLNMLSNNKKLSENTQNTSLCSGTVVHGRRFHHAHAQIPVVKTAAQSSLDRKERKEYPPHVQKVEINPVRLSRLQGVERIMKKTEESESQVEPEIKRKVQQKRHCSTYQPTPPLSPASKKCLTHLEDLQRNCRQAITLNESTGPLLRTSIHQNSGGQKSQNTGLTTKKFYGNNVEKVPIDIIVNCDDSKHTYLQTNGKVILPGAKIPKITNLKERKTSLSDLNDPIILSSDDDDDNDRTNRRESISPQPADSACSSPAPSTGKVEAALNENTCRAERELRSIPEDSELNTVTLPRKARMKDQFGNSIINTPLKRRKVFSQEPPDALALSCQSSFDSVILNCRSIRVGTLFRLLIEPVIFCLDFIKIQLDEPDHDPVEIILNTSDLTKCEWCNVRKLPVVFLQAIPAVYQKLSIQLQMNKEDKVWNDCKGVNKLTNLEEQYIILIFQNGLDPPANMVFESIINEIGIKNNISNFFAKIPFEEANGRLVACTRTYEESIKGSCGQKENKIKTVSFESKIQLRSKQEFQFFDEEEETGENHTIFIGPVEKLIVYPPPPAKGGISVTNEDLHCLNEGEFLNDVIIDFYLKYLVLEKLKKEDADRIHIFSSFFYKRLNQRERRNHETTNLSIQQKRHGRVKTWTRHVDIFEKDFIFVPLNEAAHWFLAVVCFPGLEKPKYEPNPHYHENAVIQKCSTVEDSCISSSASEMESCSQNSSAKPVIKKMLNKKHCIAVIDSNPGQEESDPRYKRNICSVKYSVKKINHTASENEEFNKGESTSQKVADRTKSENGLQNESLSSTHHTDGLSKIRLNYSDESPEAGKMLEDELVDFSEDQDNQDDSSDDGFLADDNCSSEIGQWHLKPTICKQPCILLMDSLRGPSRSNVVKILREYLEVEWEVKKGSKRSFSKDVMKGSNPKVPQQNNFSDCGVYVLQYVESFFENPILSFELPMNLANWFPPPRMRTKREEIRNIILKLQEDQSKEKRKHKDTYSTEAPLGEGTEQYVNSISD

[2] = biological target: T2, Sentrin-specific protease 7 (Homo sapiens, UniProt Q9BQF6); type: functional;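 also: Luminescence-based dose-response confirmation of ultra-high-throughput screening hits, measuring inhibition of SENP7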
T2 sequence (Q9BQF6 whole entry): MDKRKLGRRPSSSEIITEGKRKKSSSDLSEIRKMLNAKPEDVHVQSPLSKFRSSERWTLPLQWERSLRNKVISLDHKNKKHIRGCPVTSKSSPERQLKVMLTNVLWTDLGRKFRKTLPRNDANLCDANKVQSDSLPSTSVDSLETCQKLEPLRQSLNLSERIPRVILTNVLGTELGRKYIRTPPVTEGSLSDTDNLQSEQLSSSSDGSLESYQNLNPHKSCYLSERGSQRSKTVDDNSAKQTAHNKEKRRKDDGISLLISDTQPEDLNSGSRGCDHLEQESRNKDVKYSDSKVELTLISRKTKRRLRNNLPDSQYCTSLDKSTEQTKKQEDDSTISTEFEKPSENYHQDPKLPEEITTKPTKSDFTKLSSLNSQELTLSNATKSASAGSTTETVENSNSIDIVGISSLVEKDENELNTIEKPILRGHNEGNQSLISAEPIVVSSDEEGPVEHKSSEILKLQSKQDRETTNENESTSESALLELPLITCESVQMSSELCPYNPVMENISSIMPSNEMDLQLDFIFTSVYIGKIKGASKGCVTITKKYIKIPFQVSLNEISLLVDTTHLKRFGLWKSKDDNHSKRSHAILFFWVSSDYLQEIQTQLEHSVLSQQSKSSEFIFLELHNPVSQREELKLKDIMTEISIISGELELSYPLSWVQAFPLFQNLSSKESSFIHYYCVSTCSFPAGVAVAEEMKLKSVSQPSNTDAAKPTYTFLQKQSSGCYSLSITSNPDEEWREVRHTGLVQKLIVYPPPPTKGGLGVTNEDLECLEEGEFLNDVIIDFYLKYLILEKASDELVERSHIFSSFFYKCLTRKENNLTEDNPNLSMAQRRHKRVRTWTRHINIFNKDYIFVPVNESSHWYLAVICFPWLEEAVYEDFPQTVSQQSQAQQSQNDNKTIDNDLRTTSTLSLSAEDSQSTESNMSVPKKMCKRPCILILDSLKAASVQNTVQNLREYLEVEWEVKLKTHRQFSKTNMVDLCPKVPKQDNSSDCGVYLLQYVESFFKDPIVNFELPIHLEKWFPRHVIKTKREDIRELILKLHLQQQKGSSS

Protein skinhead-1 = biological target: T3, Protein skinhead-1 (Caenorhabditis elegans, UniProt P34707); type: functional
T3 sequence (P34707 whole entry): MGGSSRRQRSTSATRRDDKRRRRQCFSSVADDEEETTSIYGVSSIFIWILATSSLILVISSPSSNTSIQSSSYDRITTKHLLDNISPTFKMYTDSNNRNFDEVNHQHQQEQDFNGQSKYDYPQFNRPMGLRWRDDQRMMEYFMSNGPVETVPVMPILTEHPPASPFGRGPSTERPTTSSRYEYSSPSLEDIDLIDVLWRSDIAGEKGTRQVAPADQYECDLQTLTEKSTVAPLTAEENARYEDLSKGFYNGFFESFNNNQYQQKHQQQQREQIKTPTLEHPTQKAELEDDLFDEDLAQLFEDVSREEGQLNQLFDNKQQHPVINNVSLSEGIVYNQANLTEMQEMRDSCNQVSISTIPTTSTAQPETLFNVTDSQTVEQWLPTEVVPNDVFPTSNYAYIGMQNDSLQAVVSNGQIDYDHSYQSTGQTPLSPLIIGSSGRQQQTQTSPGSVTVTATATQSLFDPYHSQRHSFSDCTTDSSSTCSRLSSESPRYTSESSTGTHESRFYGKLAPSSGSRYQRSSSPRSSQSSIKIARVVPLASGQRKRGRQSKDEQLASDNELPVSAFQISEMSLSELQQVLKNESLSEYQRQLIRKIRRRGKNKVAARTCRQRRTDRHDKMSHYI

Caspase-3 = biological target: T4, Caspase-3 (Homo sapiens, UniProt P42574); type: functional;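 also: Dose-response selectivity test against caspase-3 for candidate inhibitors of sentrin-specific proteases (SENPs)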
T4 sequence (P42574 whole entry): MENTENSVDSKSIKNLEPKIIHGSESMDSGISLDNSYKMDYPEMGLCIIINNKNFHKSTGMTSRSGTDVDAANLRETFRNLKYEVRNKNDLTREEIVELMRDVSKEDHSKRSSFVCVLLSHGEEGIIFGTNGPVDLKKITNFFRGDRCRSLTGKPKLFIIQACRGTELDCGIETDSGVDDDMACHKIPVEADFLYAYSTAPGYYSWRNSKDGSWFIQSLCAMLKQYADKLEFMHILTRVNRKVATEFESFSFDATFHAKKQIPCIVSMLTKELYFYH

[3] = biological target: T5, Sentrin-specific protease 8 (Homo sapiens, UniProt Q96LD8); type: functional;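 also: luminescence read-out of SENP8 inhibition, dose-response confirmation following an ultra-high-throughput screen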
T5 sequence (Q96LD8 whole entry): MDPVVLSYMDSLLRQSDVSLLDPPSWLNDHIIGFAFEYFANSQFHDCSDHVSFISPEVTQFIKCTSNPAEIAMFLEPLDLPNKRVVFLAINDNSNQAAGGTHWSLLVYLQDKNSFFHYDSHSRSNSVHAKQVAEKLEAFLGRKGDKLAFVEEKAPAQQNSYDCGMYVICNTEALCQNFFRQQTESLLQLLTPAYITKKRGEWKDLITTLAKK

[4] = biological target: Nuclear receptor subfamily 5 group A member 2 (Homo sapiens, UniProt O00482); type: functional, cell-based;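 also: HEK293T cells transfected with LRH-1 and a StAR promoter luciferase reporter; potency for inhibitors that lower LRH-1 driven reporter light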
Sequence of Nuclear receptor subfamily 5 group A member 2 (O00482 whole entry): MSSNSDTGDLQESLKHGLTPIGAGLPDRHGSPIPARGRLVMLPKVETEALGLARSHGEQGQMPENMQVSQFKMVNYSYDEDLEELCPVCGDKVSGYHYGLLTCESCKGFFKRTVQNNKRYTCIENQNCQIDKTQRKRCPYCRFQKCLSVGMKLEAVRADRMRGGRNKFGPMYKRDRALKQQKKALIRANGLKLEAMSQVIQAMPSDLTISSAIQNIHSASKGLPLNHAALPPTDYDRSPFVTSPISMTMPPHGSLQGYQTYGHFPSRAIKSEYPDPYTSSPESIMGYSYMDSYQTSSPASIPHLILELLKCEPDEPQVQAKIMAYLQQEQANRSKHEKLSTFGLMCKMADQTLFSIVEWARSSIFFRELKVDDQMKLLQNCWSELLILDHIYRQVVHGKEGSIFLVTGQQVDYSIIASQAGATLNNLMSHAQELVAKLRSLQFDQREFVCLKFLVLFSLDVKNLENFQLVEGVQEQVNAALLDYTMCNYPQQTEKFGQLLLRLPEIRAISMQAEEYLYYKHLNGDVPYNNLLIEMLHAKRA

[5] = StAR promoter reporter inhibition counter-screen, dose response, counter-screen for LRH-1 inverse agonist project, cell-based, luminescence, luciferase reporter (AID 651969); type: functional
Steroidogenic factor 1 = Steroidogenic factor 1 (Homo sapiens, UniProt Q13285); test: Counterscreen for inverse agonists of the liver receptor homolog-1 (LRH-1; NR5A2): Luminescence-based cell-based high throughput dose response assay to identify inverse agonists of the Steroidogenic Factor 1 Nuclear Receptor (SF1; NR5A1).; type: functional
Sequence of Steroidogenic factor 1 (Q13285 whole entry): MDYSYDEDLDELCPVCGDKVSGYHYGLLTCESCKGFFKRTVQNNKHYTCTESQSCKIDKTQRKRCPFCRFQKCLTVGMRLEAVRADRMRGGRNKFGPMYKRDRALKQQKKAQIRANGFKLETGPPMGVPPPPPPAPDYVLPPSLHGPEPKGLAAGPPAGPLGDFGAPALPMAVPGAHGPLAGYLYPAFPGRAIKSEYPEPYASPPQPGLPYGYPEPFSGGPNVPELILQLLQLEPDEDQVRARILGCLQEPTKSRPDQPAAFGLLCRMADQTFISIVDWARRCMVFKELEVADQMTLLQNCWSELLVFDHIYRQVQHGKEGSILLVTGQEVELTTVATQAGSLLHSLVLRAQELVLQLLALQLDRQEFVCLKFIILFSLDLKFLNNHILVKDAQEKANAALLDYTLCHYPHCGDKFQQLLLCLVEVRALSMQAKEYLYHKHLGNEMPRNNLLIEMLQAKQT

Protein Wnt-3a = Protein Wnt-3a (Mus musculus, UniProt P27467); test: Wnt3a-driven reporter signaling inhibition, dose response, selectivity assay for Gli-SUFU antagonist project, Wnt-LIGHT cells, luminescence (AID 651570); type: functional; details: read-out: IC50_Mean;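 also: Wnt-LIGHT reporter cells stimulated with conditioned medium from Wnt3a-producing cells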
Sequence of Protein Wnt-3a (P27467 whole entry): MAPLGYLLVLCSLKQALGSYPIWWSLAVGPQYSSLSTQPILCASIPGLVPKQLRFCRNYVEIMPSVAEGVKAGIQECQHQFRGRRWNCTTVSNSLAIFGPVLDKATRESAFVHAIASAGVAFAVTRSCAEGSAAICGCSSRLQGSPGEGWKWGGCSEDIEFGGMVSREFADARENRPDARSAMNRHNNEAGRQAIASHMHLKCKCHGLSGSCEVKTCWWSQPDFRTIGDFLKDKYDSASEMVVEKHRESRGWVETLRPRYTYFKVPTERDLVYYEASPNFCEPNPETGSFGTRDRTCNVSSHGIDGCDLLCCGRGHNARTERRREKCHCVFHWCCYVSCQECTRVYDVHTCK

INS1 = test: beta cell apoptosis inhibitors, cytokine rescue, dose response, luminescence, retest (AID 449756); type: functional, cell-based; details: Rattus norvegicus;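 also: cell death triggered by IL-1 beta plus TNF-alpha plus IFN-gamma mixture; protective hits raise ATP signal compared with cytokine alone wells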
[6] = HepG2 cell cytotoxicity, dose response, cytotoxicity control for Shn3 inhibitor project, CellTiter-Glo, cherry-picked (AID 624134); type: functional, cell-based
[7] = control 3'UTR Renilla luciferase suppression, dose response, counter-screen for Shn3 inhibitor project, cell-based, Clone20-Shn3RL, cherry-picked (AID 624133); type: functional
[8] = Shn3 3'UTR reporter inhibitors, dose response, cell-based, Clone20 osteoblasts, firefly luciferase, cherry-picked (AID 624132); type: functional;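 also: firefly luciferase luminescence from reporter carrying the Shn3 3'UTR in osteoblasts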
[9] = biological target: Dual specificity protein phosphatase 3 (Homo sapiens, UniProt P51452); test: VHR phosphatase inhibition, dose response, selectivity assay for STEP inhibitor project, biochemical (AID 602374); type: functional; details: read-out: IC50_Mean
Sequence of Dual specificity protein phosphatase 3 (P51452 whole entry): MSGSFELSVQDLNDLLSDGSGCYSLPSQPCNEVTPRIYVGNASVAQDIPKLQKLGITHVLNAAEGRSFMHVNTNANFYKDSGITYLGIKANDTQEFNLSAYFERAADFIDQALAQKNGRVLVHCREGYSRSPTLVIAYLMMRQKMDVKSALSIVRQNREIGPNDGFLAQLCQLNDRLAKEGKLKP

[10] = biological target: Tyrosine-protein phosphatase non-receptor type 11 (Homo sapiens, UniProt Q06124); test: SHP2 phosphatase inhibition, dose response, selectivity assay for STEP inhibitor project, biochemical (AID 602367); type: functional; details: read-out: IC50_Mean
Sequence of Tyrosine-protein phosphatase non-receptor type 11 (Q06124 whole entry): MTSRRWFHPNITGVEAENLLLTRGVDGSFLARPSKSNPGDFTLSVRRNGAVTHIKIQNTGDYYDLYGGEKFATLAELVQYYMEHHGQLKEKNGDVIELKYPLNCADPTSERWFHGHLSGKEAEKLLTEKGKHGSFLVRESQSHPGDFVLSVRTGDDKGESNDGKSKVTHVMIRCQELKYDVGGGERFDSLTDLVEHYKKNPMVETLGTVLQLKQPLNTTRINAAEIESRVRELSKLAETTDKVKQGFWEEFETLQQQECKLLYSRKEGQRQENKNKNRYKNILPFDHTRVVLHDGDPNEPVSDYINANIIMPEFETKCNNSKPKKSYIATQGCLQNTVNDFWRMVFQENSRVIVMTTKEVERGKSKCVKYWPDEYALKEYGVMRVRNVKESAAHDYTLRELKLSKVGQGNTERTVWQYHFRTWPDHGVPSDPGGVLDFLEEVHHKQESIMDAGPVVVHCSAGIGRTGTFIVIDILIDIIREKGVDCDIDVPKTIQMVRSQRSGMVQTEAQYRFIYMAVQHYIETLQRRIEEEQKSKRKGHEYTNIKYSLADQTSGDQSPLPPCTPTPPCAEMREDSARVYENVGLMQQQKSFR

[11] = biological target: Tyrosine-protein phosphatase non-receptor type 5 (Homo sapiens, UniProt P54829); test: STEP phosphatase inhibitors, confirmation, biochemical, fluorescence intensity, uHTS hits (AID 602372); type: functional; details: read-out: IC50_Mean
Sequence of Tyrosine-protein phosphatase non-receptor type 5 (P54829 whole entry): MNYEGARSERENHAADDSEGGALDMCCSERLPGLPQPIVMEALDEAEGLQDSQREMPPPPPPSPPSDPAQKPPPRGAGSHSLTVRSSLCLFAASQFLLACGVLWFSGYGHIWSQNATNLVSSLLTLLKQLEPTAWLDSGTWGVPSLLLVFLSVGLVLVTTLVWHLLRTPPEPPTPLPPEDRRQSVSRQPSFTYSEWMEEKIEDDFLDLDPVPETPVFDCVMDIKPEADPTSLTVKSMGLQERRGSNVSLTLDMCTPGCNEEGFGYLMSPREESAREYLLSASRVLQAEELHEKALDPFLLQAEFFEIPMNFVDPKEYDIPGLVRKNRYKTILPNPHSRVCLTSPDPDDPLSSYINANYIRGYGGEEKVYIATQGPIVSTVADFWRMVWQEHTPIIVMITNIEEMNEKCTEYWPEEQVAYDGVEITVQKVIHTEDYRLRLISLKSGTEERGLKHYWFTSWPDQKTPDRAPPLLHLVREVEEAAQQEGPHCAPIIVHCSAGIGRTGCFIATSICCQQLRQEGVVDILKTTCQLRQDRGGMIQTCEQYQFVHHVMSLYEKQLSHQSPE

[12] = biological target: Adenosylmethionine-8-amino-7-oxononanoate aminotransferase (Mycobacterium tuberculosis, UniProt P9WQ81); test: Mycobacterium tuberculosis BioA enzyme inhibitor Measured in Biochemical System Using Plate Reader - 2163-02_Inhibitor_Dose_CherryPick_Activity.; type: functional, Mycobacterium tuberculosis UT205
Sequence of Adenosylmethionine-8-amino-7-oxononanoate aminotransferase (P9WQ81 whole entry): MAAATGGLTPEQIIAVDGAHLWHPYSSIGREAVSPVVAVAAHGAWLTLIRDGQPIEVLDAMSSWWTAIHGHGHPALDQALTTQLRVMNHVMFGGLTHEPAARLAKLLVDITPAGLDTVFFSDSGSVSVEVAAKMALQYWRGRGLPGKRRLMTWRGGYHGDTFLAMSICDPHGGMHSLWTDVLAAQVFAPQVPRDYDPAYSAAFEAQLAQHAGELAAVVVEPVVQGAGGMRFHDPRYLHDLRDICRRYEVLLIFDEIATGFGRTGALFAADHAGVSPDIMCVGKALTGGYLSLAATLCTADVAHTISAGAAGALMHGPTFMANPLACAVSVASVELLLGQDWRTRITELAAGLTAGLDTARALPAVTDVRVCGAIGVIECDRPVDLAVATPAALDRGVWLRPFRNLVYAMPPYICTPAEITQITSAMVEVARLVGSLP

Q: For O=c1c2ccccc2oc2ccc(-c3ccc4[nH]ccc4c3)cc12, which IC50 [1] is on record?
A: 33.7 µM (active)

Q: And the IC50 [2]?
A: 6.1 µM (active)

Q: What about the IC50 (Protein skinhead-1) of the same compound?
A: 4.77 µM (active)

Q: What about the IC50 (Caspase-3) of the same compound?
A: 75.1 µM (active)

Q: What about the IC50 [3] of the same compound?
A: > 100 µM (inactive)

Q: With CCCNC(=O)c1sc2c(c1C(=O)Nc1ccccn1)CCCC2 as the compound, how does the IC50 [4] read?
A: 14.5 µM (inactive)

Q: And the IC50 [5]?
A: 35.9 µM (inactive)

Q: What about the IC50 (Steroidogenic factor 1) of the same compound?
A: 8.39 µM (active)

Q: With CCOc1ccc(NS(=O)(=O)c2cccc(C(=O)N3CCN(C/C=C/c4ccccc4)CC3)c2)cc1 as the compound, how does the IC50 (Protein Wnt-3a) read?
A: 22.7 µM (inactive)

Q: Which AC50 (INS1) does the source give for O=C(c1cc2sccc2n1Cc1ccc(F)cc1)N1CCN(c2nc3ccccc3s2)CC1 here?
A: 3.42 µM (active)

Q: What about the AC50 [6] of the same compound?
A: 3.48 µM (active)

Q: What about the AC50 [7] of the same compound?
A: 1.71 µM (active)

Q: And the AC50 [8]?
A: 1.36 µM (active)

Q: What about the IC50 (Protein Wnt-3a) of the same compound?
A: 5.49 µM (active)

Q: For S=C(NCCCN1CCOCC1)Nc1ccc(-c2nc3ccccc3[nH]2)cc1, which IC50 [9] is on record?
A: 3.03 µM (active)

Q: And the IC50 [10]?
A: 3.45 µM (active)

Q: What about the IC50 [11] of the same compound?
A: 56.7 µM (inactive)

Q: Which AC50 [12] does the source give for CNC(=O)C[C@H]1CC[C@@H]2[C@H](COC[C@@H](O)CN2C(=O)Nc2ccc(Cl)c(Cl)c2)O1 here?
A: 1.88 µM (active)
